Like-named read-outs stand apart in the source and are kept apart here.

This passage reports IC90 results from patent US6313110A, “Substituted 2H-1,3-diazapin-2-one useful as an HIV protease inhibitor” (priority 2000, dated 2001).

In the assay the test system is HIV-1 (RF) in MT-2 cells. As to the kind of experiment: HIV RNA assay: antiviral potency in HIV-1 (RF) infected MT-2 cells (reduction of HIV RNA level). Format: cell-based. As to the method:
Plasmid pDAB 72 containing both gag and pol sequences of BH10 (bp 113-1816) cloned into PTZ 19R was prepared according to Erickson-Viitanen et al. AIDS Research and Human Retroviruses 1989, 5, 577. The plasmid was linearized with Bam HI prior to the generation of in vitro RNA transcripts using the Riboprobe Gemini system II kit (Promega) with T7 RNA polymerase. Synthesized RNA was purified by treatment with RNase free DNAse (Promega), phenol-chloroform extraction, and ethanol precipitation. RNA transcripts were dissolved in water, and stored at -70° C. The concentration of RNA was determined from the A260.
Biotinylated capture probes were purified by HPLC after synthesis on an Applied Biosystems (Foster City, Calif.) DNA synthesizer by addition of biotin to the 5' terminal end of the oligonucleotide, using the biotin-phosphoramidite reagent of Cocuzza, Tet. Lett. 1989, 30, 6287. […]
MT-2 and MT-4 cells were maintained in RPMI 1640 supplemented with 5% fetal calf serum (FCS) for MT-2 cells or 10% FCS for MT-4 cells, 2 mM L-glutamine and 50 μg/mL gentamycin, all from Gibco. […] Infectious titers of HIV-1(RF) stocks were 1-3×10^7 PFU (plaque forming units)/mL as measured by plaque assay on MT-2 cells (see below). […]

As for `Nc1cccc(CN2C(=O)N(Cc3ccc4[nH]ncc4c3)[C@H](Cc3ccccc3)[C@H](O)[C@@H](O)[C@H]2Cc2ccccc2)c1` [Example 1, (4R,5S,6S,7R)-hexahydro-1-[(indazol-5-yl)methyl]-5,6-dihydroxy-4,7-bis[phenylmethyl]-3-(3-aminophenyl)methyl-2H-1,3-diazapin-2-one], under “Human immunodeficiency virus 1, MT2, 72 h, 3 days culture at 37° C., read-out: IC90 (concentration of compound required to reduce the HIV RNA level by 90%)”, the IC90 is below 0.05 µM.

For `Nc1ccn([C@H]2CC[C@@H](CO)O2)c(=O)n1` [ddC, dideoxycytidine], the IC90 (Human immunodeficiency virus 1, MT2, ddC reference, dilutions of virus selected to give this IC90, read-out: IC90 (concentration of compound required to reduce the HIV RNA level by 90%)) turned out to be 0.2 µg/mL.
